Measurements as given in PMC3028607.

Test: SmI2-mediated 8-endo-trig ketyl-alkene radical cyclisation (C-C bond between ketone carbon and distal styrene carbon); SmI2 2.2 equiv, HMPA 18 equiv, t-BuOH 2 equiv; substrate added over 2 h, then 16 h
Details: THF, 15.0 mM, 22.0 °C

COC(=O)[C@@H]1Cc2ccccc2CC(C)C2(O)CCCC[C@@H]12 (stereo partly shown)
ring closure, isolated yield (from C/C=C/c1ccccc1C[C@@H](C(=O)OC)[C@@H]1CCCCC1=O, 8-membered ring): 11%

COC(=O)C1Cc2ccccc2C(C)CC(C)(O)C1 (stereo not shown) [4 (to 9 40% + 10 38%)]
ring closure, isolated yield (from C=C(C)c1ccccc1CC(CC(C)=O)C(=O)OC, 8-membered ring): 78%

COC(=O)[C@@H]1Cc2ccccc2CCC2(O)CCCCC[C@@H]12 (stereo partly shown) [5a (to 6; 23% SM recovered)]
ring closure, isolated yield (from C=Cc1ccccc1C[C@@H](C(=O)OC)[C@@H]1CCCCCC1=O, 8-membered ring): 42%

COC(=O)[C@@H]1Cc2ccccc2CCC2(O)CCCCC[C@H]12 (stereo partly shown) [5b (no product; 62% SM recovered)]
ring closure, isolated yield (from C=Cc1ccccc1C[C@@H](C(=O)OC)[C@H]1CCCCCC1=O, 8-membered ring): 0%

COC(=O)[C@@H]1Cc2ccccc2C(C)CC2(O)CCCC[C@@H]12 (stereo partly shown) [7a (to 8)]
ring closure, isolated yield (from C=C(C)c1ccccc1C[C@@H](C(=O)OC)[C@@H]1CCCCC1=O, 8-membered ring): 63%

COC(=O)C1Cc2ccccc2C(C)CC(O)(C(C)C)C1 (stereo not shown) [11 (to 12 54% + 13 28%)]
ring closure, isolated yield (from C=C(C)c1ccccc1CC(CC(=O)C(C)C)C(=O)OC, 8-membered ring): 82%

COC(=O)C1Cc2ccccc2C(C)CC(O)(C(C)C)C1(C)C (stereo not shown) [14 (only fragmentation 15, 58%)]
ring closure, isolated yield (from C=C(C)c1ccccc1CC(C(=O)OC)C(C)(C)C(=O)C(C)C, 8-membered ring): 0%

COC(=O)C1Cc2ccccc2C(c2ccccc2)CC(O)(C(C)C)C1 (stereo not shown) [16 (to 17a 37% + 17b 22%)]
ring closure, isolated yield (from C=C(c1ccccc1)c1ccccc1CC(CC(=O)C(C)C)C(=O)OC, 8-membered ring): 59%

COC(=O)C1Cc2ccccc2CC(C)C(C)(O)C1 (stereo not shown) [18 (to 19; 20% ketyl-aryl product 20)]
ring closure, isolated yield (from C/C=C/c1ccccc1CC(CC(C)=O)C(=O)OC, 8-membered ring): 54%

CCC1(O)CC(C(=O)OC)Cc2ccccc2CC1C (stereo not shown) [21 (to 22; 6% fragmentation 23)]
ring closure, isolated yield (from C/C=C/c1ccccc1CC(CC(=O)CC)C(=O)OC, 8-membered ring): 56%

COC(=O)C1Cc2ccccc2CC(C)C(O)(C(C)C)C1 (stereo not shown) [24 (to 25)]
ring closure, isolated yield (from C/C=C/c1ccccc1CC(CC(=O)C(C)C)C(=O)OC, 8-membered ring): 63%

COC(=O)[C@@H]1Cc2ccccc2CC(C)C2(O)CCCC[C@H]12 (stereo partly shown) [26b (to lactone 29; 27% fragmentation 23; 40% SM)]
ring closure, isolated yield (from C/C=C/c1ccccc1C[C@@H](C(=O)OC)[C@H]1CCCCC1=O, 8-membered ring): 9%

COC(=O)C1Cc2ccccc2CC(C)C(O)(C(C)C)C1 (stereo not shown) [30 (to 31; 31% fragmentation 32; 32% SM)]
ring closure, isolated yield (from C/C=C\c1ccccc1CC(CC(=O)C(C)C)C(=O)OC, 8-membered ring): 8%

COC(=O)C1Cc2ccccc2CC(C2CC2)C(O)(C(C)C)C1 (stereo not shown) [33 (to 34; 47% fragmentation 35)]
ring closure, isolated yield (from COC(=O)C(CC(=O)C(C)C)Cc1ccccc1/C=C/C1CC1, 8-membered ring): 24%

COC(=O)C1Cc2ccccc2CC(c2ccccc2)C(O)(C(C)C)C1 (stereo not shown) [36 (to 37; 20% SM)]
ring closure, isolated yield (from COC(=O)C(CC(=O)C(C)C)Cc1ccccc1/C=C/c1ccccc1, 8-membered ring): 47%

COC(=O)[C@@H]1Cc2ccccc2CC(c2ccccc2)C2(O)CCCC[C@@H]12 (stereo partly drawn) [38a (no 8-ring; 7-exo product 39, 44%)]
ring closure, isolated yield (from COC(=O)[C@H](Cc1ccccc1/C=C/c1ccccc1)[C@@H]1CCCCC1=O, 8-membered ring): 0%

COC(=O)[C@@H]1Cc2ccccc2CC(c2ccccc2)C2(O)CCCC[C@H]12 (stereo partly drawn) [38b (no 8-ring; 7-exo lactone 40, 63%)]
ring closure, isolated yield (from COC(=O)[C@H](Cc1ccccc1/C=C/c1ccccc1)[C@H]1CCCCC1=O, 8-membered ring): 0%

COC(=O)C1Cc2ccccc2CC(C)(C)C(C)(O)C1 (stereo not shown) [41 (no 8-ring; ketyl-aryl 42 14% + 43 7%)]
ring closure, isolated yield (from COC(=O)C(CC(C)=O)Cc1ccccc1C=C(C)C, 8-membered ring): 0%

COC(=O)C1Cc2ccccc2CC(C)C(O)(C(C)C)C1(C)C (stereo not shown) [(E)-1-propenyl analogue of 14 (only fragmentation)]
ring closure, isolated yield (from C/C=C/c1ccccc1CC(C(=O)OC)C(C)(C)C(=O)C(C)C, 8-membered ring): 0%
